BigSolDB 2.1

SMILES: Nc1nc(NC2CC2)c2ncn([C@H]3C=C[C@@H](CO)C3)c2n1
- solubility (mole fraction) (in acetone, 278.15 K): 0.00115
- solubility (mole fraction) (in acetone, 283.15 K): 0.00123
- solubility (mole fraction) (in acetone, 288.15 K): 0.00131
- solubility (mole fraction) (in acetone, 293.15 K): 0.00142
- solubility (mole fraction) (in acetone, 298.15 K): 0.00155
- solubility (mole fraction) (in acetone, 303.15 K): 0.00169
- solubility (mole fraction) (in acetone, 308.15 K): 0.00183
- solubility (mole fraction) (in acetone, 313.15 K): 0.00205
- solubility (mole fraction) (in acetone, 318.15 K): 0.00225
- solubility (mole fraction) (in acetone, 323.15 K): 0.00247
- solubility (mole fraction) (in ethanol, 278.15 K): 0.00601
- solubility (mole fraction) (in ethanol, 283.15 K): 0.00651
- solubility (mole fraction) (in ethanol, 288.15 K): 0.00716
- solubility (mole fraction) (in ethanol, 293.15 K): 0.00803
- solubility (mole fraction) (in ethanol, 298.15 K): 0.00903
- solubility (mole fraction) (in ethanol, 303.15 K): 0.0104
- solubility (mole fraction) (in ethanol, 308.15 K): 0.0123
- solubility (mole fraction) (in ethanol, 313.15 K): 0.0142
- solubility (mole fraction) (in ethanol, 318.15 K): 0.0162
- solubility (mole fraction) (in ethanol, 323.15 K): 0.0184
- solubility (mole fraction) (in ethyl acetate, 278.15 K): 0.000631
- solubility (mole fraction) (in ethyl acetate, 283.15 K): 0.000705
- solubility (mole fraction) (in ethyl acetate, 288.15 K): 0.000796
- solubility (mole fraction) (in ethyl acetate, 293.15 K): 0.000906
- solubility (mole fraction) (in ethyl acetate, 298.15 K): 0.00102
- solubility (mole fraction) (in ethyl acetate, 303.15 K): 0.00112
- solubility (mole fraction) (in ethyl acetate, 308.15 K): 0.00127
- solubility (mole fraction) (in ethyl acetate, 313.15 K): 0.00147
- solubility (mole fraction) (in ethyl acetate, 318.15 K): 0.00168
- solubility (mole fraction) (in ethyl acetate, 323.15 K): 0.00192
- solubility (mole fraction) (in isobutanol, 278.15 K): 0.00772
- solubility (mole fraction) (in isobutanol, 283.15 K): 0.00823
- solubility (mole fraction) (in isobutanol, 288.15 K): 0.00896
- solubility (mole fraction) (in isobutanol, 293.15 K): 0.0101
- solubility (mole fraction) (in isobutanol, 298.15 K): 0.0113
- solubility (mole fraction) (in isobutanol, 303.15 K): 0.0121
- solubility (mole fraction) (in isobutanol, 308.15 K): 0.0131
- solubility (mole fraction) (in isobutanol, 313.15 K): 0.0144
- solubility (mole fraction) (in isobutanol, 318.15 K): 0.0164
- solubility (mole fraction) (in isobutanol, 323.15 K): 0.0182
- solubility (mole fraction) (in isopropanol, 278.15 K): 0.00451
- solubility (mole fraction) (in isopropanol, 283.15 K): 0.00483
- solubility (mole fraction) (in isopropanol, 288.15 K): 0.00534
- solubility (mole fraction) (in isopropanol, 293.15 K): 0.006
- solubility (mole fraction) (in isopropanol, 298.15 K): 0.00655
- solubility (mole fraction) (in isopropanol, 303.15 K): 0.00744
- solubility (mole fraction) (in isopropanol, 308.15 K): 0.00855
- solubility (mole fraction) (in isopropanol, 313.15 K): 0.0096
- solubility (mole fraction) (in isopropanol, 318.15 K): 0.0111
- solubility (mole fraction) (in isopropanol, 323.15 K): 0.0123
- solubility (mole fraction) (in methanol, 278.15 K): 0.00623
- solubility (mole fraction) (in methanol, 283.15 K): 0.00688
- solubility (mole fraction) (in methanol, 288.15 K): 0.00825
- solubility (mole fraction) (in methanol, 293.15 K): 0.00965
- solubility (mole fraction) (in methanol, 298.15 K): 0.0109
- solubility (mole fraction) (in methanol, 303.15 K): 0.0126
- solubility (mole fraction) (in methanol, 308.15 K): 0.0147
- solubility (mole fraction) (in methanol, 313.15 K): 0.0181
- solubility (mole fraction) (in methanol, 318.15 K): 0.0209
- solubility (mole fraction) (in methanol, 323.15 K): 0.0241
- solubility (mole fraction) (in methyl acetate, 278.15 K): 0.000901
- solubility (mole fraction) (in methyl acetate, 283.15 K): 0.00101
- solubility (mole fraction) (in methyl acetate, 288.15 K): 0.0011
- solubility (mole fraction) (in methyl acetate, 293.15 K): 0.00123
- solubility (mole fraction) (in methyl acetate, 298.15 K): 0.0014
- solubility (mole fraction) (in methyl acetate, 303.15 K): 0.00156
- solubility (mole fraction) (in methyl acetate, 308.15 K): 0.00176
- solubility (mole fraction) (in methyl acetate, 313.15 K): 0.00206
- solubility (mole fraction) (in methyl acetate, 318.15 K): 0.0023
- solubility (mole fraction) (in methyl acetate, 323.15 K): 0.0026
- solubility (mole fraction) (in n-butanol, 278.15 K): 0.00718
- solubility (mole fraction) (in n-butanol, 283.15 K): 0.00798
- solubility (mole fraction) (in n-butanol, 288.15 K): 0.0089
- solubility (mole fraction) (in n-butanol, 293.15 K): 0.0103
- solubility (mole fraction) (in n-butanol, 298.15 K): 0.0117
- solubility (mole fraction) (in n-butanol, 303.15 K): 0.0133
- solubility (mole fraction) (in n-butanol, 308.15 K): 0.0155
- solubility (mole fraction) (in n-butanol, 313.15 K): 0.0177
- solubility (mole fraction) (in n-butanol, 318.15 K): 0.0204
- solubility (mole fraction) (in n-butanol, 323.15 K): 0.0231
- solubility (mole fraction) (in n-pentanol, 278.15 K): 0.00898
- solubility (mole fraction) (in n-pentanol, 283.15 K): 0.0106
- solubility (mole fraction) (in n-pentanol, 288.15 K): 0.012
- solubility (mole fraction) (in n-pentanol, 293.15 K): 0.0134
- solubility (mole fraction) (in n-pentanol, 298.15 K): 0.0153
- solubility (mole fraction) (in n-pentanol, 303.15 K): 0.0169
- solubility (mole fraction) (in n-pentanol, 308.15 K): 0.0195
- solubility (mole fraction) (in n-pentanol, 313.15 K): 0.0226
- solubility (mole fraction) (in n-pentanol, 318.15 K): 0.0248
- solubility (mole fraction) (in n-pentanol, 323.15 K): 0.0277
- solubility (mole fraction) (in n-propanol, 278.15 K): 0.00798
- solubility (mole fraction) (in n-propanol, 283.15 K): 0.0087
- solubility (mole fraction) (in n-propanol, 288.15 K): 0.00952
- solubility (mole fraction) (in n-propanol, 293.15 K): 0.0107
- solubility (mole fraction) (in n-propanol, 298.15 K): 0.0119
- solubility (mole fraction) (in n-propanol, 303.15 K): 0.0136
- solubility (mole fraction) (in n-propanol, 308.15 K): 0.0159
- solubility (mole fraction) (in n-propanol, 313.15 K): 0.0184
- solubility (mole fraction) (in n-propanol, 318.15 K): 0.0211
- solubility (mole fraction) (in n-propanol, 323.15 K): 0.024
- solubility (mole fraction) (in sec-butanol, 278.15 K): 0.00768
- solubility (mole fraction) (in sec-butanol, 283.15 K): 0.00844
- solubility (mole fraction) (in sec-butanol, 288.15 K): 0.00927
- solubility (mole fraction) (in sec-butanol, 293.15 K): 0.0104
- solubility (mole fraction) (in sec-butanol, 298.15 K): 0.0118
- solubility (mole fraction) (in sec-butanol, 303.15 K): 0.0134
- solubility (mole fraction) (in sec-butanol, 308.15 K): 0.015
- solubility (mole fraction) (in sec-butanol, 313.15 K): 0.0172
- solubility (mole fraction) (in sec-butanol, 318.15 K): 0.0197
- solubility (mole fraction) (in sec-butanol, 323.15 K): 0.0222
- solubility (mole fraction) (in water, 278.15 K): 0.000239
- solubility (mole fraction) (in water, 283.15 K): 0.000266
- solubility (mole fraction) (in water, 288.15 K): 0.000295
- solubility (mole fraction) (in water, 293.15 K): 0.000334
- solubility (mole fraction) (in water, 298.15 K): 0.000386
- solubility (mole fraction) (in water, 303.15 K): 0.000436
- solubility (mole fraction) (in water, 308.15 K): 0.0005
- solubility (mole fraction) (in water, 313.15 K): 0.000547
- solubility (mole fraction) (in water, 318.15 K): 0.000649
- solubility (mole fraction) (in water, 323.15 K): 0.000748
